Reference: patent US12398178B2, “Collections of peptides, peptide agents, and methods of use thereof” (Parabilis Medicines, Inc., priority 2018, dated 2025)
Starred links: 1 amine or outer side, 2 acyl side, 3 side chain; linkers in the order of their positions; H or OH if unused. Positions of bridges follow the written chain, without caps; N, C: chain ends. Residues, ends and D or L forms follow the SMILES beside them. No end group written: not given here. X1 = O=C(C[*:1])O[C@@H]1C=C[C@H](OC(=O)C[*:2])C1; X2 = O=C(C[*:1])O[C@@H]1CC[C@H](OC(=O)C[*:2])C1; Linker 16 = not defined here

Tests used:
[1] = Measurement of LogD (CHI logD by HPLC); format: physicochemical; conditions: CHI log D, 50 mM ammonium acetate pH 7.4 / acetonitrile gradient, C-18 column, 25° C.
Protocol: Measurement of LogD: LogD values were measured on a Agilent 1260 HPLC with UV detector (254, 220 nm), using a Gemini NX C-18 50×3 mm column (Phenomenex) with a 6-minute 0-100% mobile phase gradient of A) 50 mM ammonium acetate pH 7.4 and B) Acetonitrile at 25° C. with a flow rate of 1 mL/min and injection volume of 3-5 uL.

full-length β-Catenin = molecular target: T1, full-length β-Catenin (Homo sapiens, UniProt P35222); test: Competition fluorescence polarization assay for binding to beta-catenin (displacement of FITC labeled Axin peptide probe); conditions: 15 nM full-length β-Catenin, 20 nM FITC labeled Axin peptide probe, 3-fold serial dilution from 5 μM; read-out: bCat EC50
T1 construct: Probe solution (15 nM full-length β-Catenin, 20 nM FITC labeled Axin peptide in buffer)
T1 sequence (P35222 1-781): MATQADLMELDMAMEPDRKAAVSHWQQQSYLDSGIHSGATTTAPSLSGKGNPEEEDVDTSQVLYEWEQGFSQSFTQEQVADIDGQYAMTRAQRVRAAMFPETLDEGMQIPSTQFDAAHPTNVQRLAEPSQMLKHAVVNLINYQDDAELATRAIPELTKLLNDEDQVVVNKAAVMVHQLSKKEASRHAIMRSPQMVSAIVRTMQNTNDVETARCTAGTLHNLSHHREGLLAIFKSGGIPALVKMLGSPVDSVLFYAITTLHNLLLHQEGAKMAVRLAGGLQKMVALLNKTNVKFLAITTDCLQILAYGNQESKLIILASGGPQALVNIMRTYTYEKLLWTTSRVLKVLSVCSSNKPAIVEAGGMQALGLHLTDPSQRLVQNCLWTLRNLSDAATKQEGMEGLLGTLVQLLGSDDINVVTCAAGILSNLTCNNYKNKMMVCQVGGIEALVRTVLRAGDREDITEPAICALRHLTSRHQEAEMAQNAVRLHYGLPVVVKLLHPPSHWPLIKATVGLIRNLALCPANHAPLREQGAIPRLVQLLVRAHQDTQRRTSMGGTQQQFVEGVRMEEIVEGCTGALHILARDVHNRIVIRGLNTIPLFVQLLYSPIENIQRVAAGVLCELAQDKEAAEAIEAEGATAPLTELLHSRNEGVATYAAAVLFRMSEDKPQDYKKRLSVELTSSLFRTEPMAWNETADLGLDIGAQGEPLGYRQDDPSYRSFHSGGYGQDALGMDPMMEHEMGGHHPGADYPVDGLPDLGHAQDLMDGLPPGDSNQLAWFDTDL
Protocol: Peptide assessment: In one assay for assessing binding to beta-catenin, peptide solutions were prepared in buffer (50 mM Tris pH 8.0, 250 mM NaCl, 2% glycerol, 0.5 mM EDTA, 0.02% w/v sodium azide) using a 3-fold serial dilution from 5 μM. Probe solution (15 nM full-length β-Catenin, 20 nM FITC labeled Axin peptide in buffer ([FAM-PEG1-RRWPR(S5)ILD(S5)HVRRVWR (SEQ ID NO: 44)] where the two S5 residues are stapled, as reported in: Proc Natl Acad Sci USA. 2012 Oct. 30; 109(44):17942-7)) was prepared and incubated for 5 minutes, then 40 μL per well plated in a black polystyrene 384-well plate (Corning). Equal volume of the titrated peptide was added to the plate and incubated protected from light for 15 minutes prior to read. Reads were performed on a Spectramax M5 (Molecular Devices) in duplicate.

[2] = Measurement of LogK (log k IAM by HPLC on IAM.PC.DD2 column); format: physicochemical; conditions: 50 mM ammonium acetate pH 7.4 / acetonitrile, 30° C.
Protocol: Measurement of LogK: LogK values were measured on a Agilent 1260 HPLC with UV detector (254,280 nm) using a IAM.PC.DD2 100×4.6 mm column (Regis Technologies 1-774011-300) with a 6.5 min gradient of 0-90% B with mobile phase A of 50 mM ammonium acetate pH 7.4, and mobile phase B of Acetonitrile. The temperature was 30° C., the flow rate 1.5 mL/min, and the injection volume 3-5 uL. Calibration mixture IAM was purchased from Bio-mimetic Chromatography Ltd and used to run calibration, calculate CHI IAM value, then calculate logk IAM using equation: log k IAM=0.046*CHI IAM+0.42.

37 (ADPATHRCEWAALHCELV; linker 8-15 via Linker 16 (inferred); reading uncertain) [Compound 37]
LogD [1]: 0.84
EC50 (full-length β-Catenin): > 10 µM
LogK [2]: 1.34

CC[C@H](C)[C@@H]1NC(=O)[C@H](CC(C)C)NC(=O)[C@H](C)NC(=O)[C@H](C)NC(=O)[C@H](Cc2c[nH]cn2)NC(=O)[C@H](CCC(=O)O)NC(=O)[C@@H](NC(=O)[C@H](C)NC(=O)[C@H](Cc2c[nH]c3ccccc23)NC(=O)[C@H](CC(C)C)NC(=O)[C@H](C)NC(=O)[C@@H]2CCCN2C(=O)[C@H](CC(=O)O)NC(=O)[C@H](C)N)CSCC(=O)O[C@@H]2CC[C@@H](C2)OC(=O)CSC[C@@H](C(=O)N[C@@H](CCC(=O)O)C(=O)N[C@H](C(=O)N[C@@H](CCC(N)=O)C(N)=O)[C@@H](C)O)NC1=O [Compound 47] (H-ADPALWACEHAALICETQ-NH2; linker 8-15 via X2; N-terminus and C-terminus assumed)
chromatographic logD [1]: 0.91
EC50 (full-length β-Catenin): > 10 µM

CC[C@H](C)[C@@H]1NC(=O)[C@H](CC(C)C)NC(=O)[C@H](C)NC(=O)[C@H](C)NC(=O)[C@H](Cc2c[nH]cn2)NC(=O)[C@H](CCC(=O)O)NC(=O)[C@@H](NC(=O)[C@H](C)NC(=O)[C@H](Cc2c[nH]c3ccccc23)NC(=O)[C@H](CC(C)C)NC(=O)[C@H](C)NC(=O)[C@@H]2CCCN2C(=O)[C@H](CC(=O)O)NC(=O)[C@H](C)N)CSCC(=O)O[C@@H]2C=C[C@@H](C2)OC(=O)CSC[C@@H](C(=O)N[C@@H](CCC(=O)O)C(=O)N[C@H](C(=O)N[C@@H](CCC(N)=O)C(N)=O)[C@@H](C)O)NC1=O [Compound 48] (H-ADPALWACEHAALICETQ-NH2; linker 8-15 via X1; N-terminus and C-terminus assumed)
chromatographic logD [1]: 0.93
EC50 (full-length β-Catenin): > 10 µM

GPAKPEAPGEDASPDELHHYYQNLETYLYRVA-NH2 (C-terminus assumed) [Compound 15]
chromatographic logD [1]: 0.82
EC50 (full-length β-Catenin): > 10 µM

GPAKPEAPGEDASPDELHTYYDTLYHYLTSVA-NH2 (C-terminus assumed) [Compound 22]
chromatographic logD [1]: 1.09
EC50 (full-length β-Catenin): > 10 µM

GPAKPEAPGEDASPDELIFYYDHLSRYLTDVA-NH2 (C-terminus assumed) [Compound 20]
chromatographic logD [1]: 0.91
EC50 (full-length β-Catenin): > 10 µM

GPAKPEAPGEDASPDELIHYYNSLDEYLYEVA-NH2 (C-terminus assumed) [Compound 16]
chromatographic logD [1]: 0.53
EC50 (full-length β-Catenin): > 10 µM

GPAKPEAPGEDASPDELMHYYTSLEDYLDHVP-NH2 (C-terminus assumed) [Compound 18]
chromatographic logD [1]: 0.52
EC50 (full-length β-Catenin): > 10 µM

GPAKPEAPGEDASPDELRMYYHELDNYLDQVA-NH2 (C-terminus assumed) [Compound 21]
chromatographic logD [1]: 0.44
EC50 (full-length β-Catenin): > 10 µM

GPAKPEAPGEDASPDELTYYYDELRDYLYSVA-NH2 (C-terminus assumed) [Compound 19]
chromatographic logD [1]: 0.82
EC50 (full-length β-Catenin): > 10 µM

GPAKPEAPGEDASPDELYHYYTHLEEYLYDVA-NH2 (C-terminus assumed) [Compound 17]
chromatographic logD [1]: 0.64
EC50 (full-length β-Catenin): > 10 µM

GPAKPEAPGEDASPDELYYYYDDLRQYLSTVA-NH2 (C-terminus assumed) [Compound 23]
chromatographic logD [1]: 0.81
EC50 (full-length β-Catenin): > 10 µM

GPAKPEAPGEDASPEELYHYYWDLDDYLDRVA-NH2 (C-terminus assumed) [Compound 28]
chromatographic logD [1]: 0.62
EC50 (full-length β-Catenin): > 10 µM

GPAKPEAPGEDASPIELWEYYESLETYLDNVA-NH2 (C-terminus assumed) [Compound 29]
chromatographic logD [1]: 0.73
EC50 (full-length β-Catenin): > 10 µM

GPAKPEAPGEDASPLELNLYYLDLHDYLQQVA-NH2 (C-terminus assumed) [Compound 30]
chromatographic logD [1]: 0.98
EC50 (full-length β-Catenin): > 10 µM

GPAKPEAPGEDASPNELHYYYWELDSYLENVA-NH2 (C-terminus assumed) [Compound 27]
chromatographic logD [1]: 0.64
EC50 (full-length β-Catenin): > 10 µM

GPAKPEAPGEDASPNELYYYYDELHYYLHDVA-NH2 (C-terminus assumed) [Compound 25]
chromatographic logD [1]: 0.59
EC50 (full-length β-Catenin): > 10 µM

GPAKPEAPGEDASPQELHDYYEILDNYLDWVA-NH2 (C-terminus assumed) [Compound 26]
chromatographic logD [1]: 0.87
EC50 (full-length β-Catenin): > 10 µM

GPAKPEAPGEDASPTELYYYYDHLTDYLDVVP-NH2 (C-terminus assumed) [Compound 24]
chromatographic logD [1]: 0.66
EC50 (full-length β-Catenin): > 10 µM
